Laboratory results as given in patent US8377909B2, “Use of phytate as agent inhibiting dissolution of crystals of calcium salts for the prevention of osteoporosis” (Universitat de les Illes Balears, priority 2006, dated 2013).

Legend:
[1] = Effect of phytate consumption on bone mass, axial densitometry; assay type: in vivo; conditions: overall conclusion of the densitometry study
Procedure: A study was carried out evaluating the effect of phytate consumption on the level of bone mass measured by axial densitometry and peripheral heel densitometry. In total, 433 axial densitometer measurements and 1473 peripheral heel densitometer measurements were made. The consumption of phytate by all subjects was evaluated by using a dietetic questionnaire. Subjects were classified into 4 groups (group 1, group 2, group 3 and group 4) according to increasing levels of phytate consumption.

[2] = Dissolution of hydroxyapatite in the presence of phytate at pH 5; assay type: physicochemical; conditions: 12 and 24 uM phytate present in pH 5 stage; over 24 hours; FIG. 2
Procedure: FIG. 2 is a graph showing the quantity of calcium dissolved on treating hydroxyapatite for a period of 24 hours in the presence of various concentrations of phytate at pH5.
(§1) A homogenous suspension of crystalline calcium phosphate in the form of hydroxyapatite in TRIS buffer at pH 7.4 was prepared. This suspension was stirred for 8 hours. Then the crystals obtained were filtered and dried to constant weight. Then these crystals were resuspended at pH 5.0 (in acetate buffer) and the kinetics of dissolution of the salt was determined over 24 hours, continuously stirring the system. The kinetics were followed by determining the quantity of dissolved calcium and phosphorus by atomic emission spectroscopy (using inductively coupled plasma).
This experiment was repeated using concentrations of 12 and 24 uM of phytate in the pH 5 stage with the aim of studying the inhibitory effect of dissolution by phytate present in the solution.

[3] = Dissolution of hydroxyapatite previously treated with phytate at pH 7.4; assay type: physicochemical; conditions: 1, 6 and 12 uM phytate fixed at pH 7.4 stage; dissolution at pH 5.0 acetate buffer over 24 hours; FIG. 1
Procedure: FIG. 1 is a graph showing the quantity of calcium dissolved on treating hydroxyapatite, which has been previously treated with various concentrations of phytate at pH 7.4, for a period of 24 hours.
as §1
This experiment was repeated using concentrations of 1, 6 and 12 uM of phytate during the stage at pH 7.4 with the aim of fixing this compound on the hydroxyapatite structure.

[4] = Adsorption of phytate on hydroxyapatite crystals; assay type: physicochemical; conditions: TRIS buffer pH 7.4, stirred 8 hours
Procedure: Three homogenous suspensions of crystallised calcium phosphate in the form of hydroxyapatite in TRIS buffer at pH 7.4 were prepared. These suspensions were stirred for 8 hours in the presence of 1, 3 and 12 uM of phytate, respectively. Later, the suspensions were filtered and the amount of phytate adsorbed on the hydroxyapatite crystals was determined by difference between the initial and final phytate in the solution at pH 7.4.

phytate present in the solution remained fixed to the calcium phosphate structure (hydroxyapatite) ([4]; 1 uM phytate): 62%
phytate present in the solution remained fixed to the calcium phosphate structure (hydroxyapatite) ([4]; 3 uM phytate): 66%
phytate present in the solution remained fixed to the calcium phosphate structure (hydroxyapatite) ([4]; 12 uM phytate): 56%
SMILES: O=P(O)(O)O[C@H]1[C@H](OP(=O)(O)O)[C@@H](OP(=O)(O)O)[C@H](OP(=O)(O)O)[C@@H](OP(=O)(O)O)[C@H]1OP(=O)(O)O [phytate, myo-inositol hexaphosphate]
effect of consumption of a diet rich in phytate on bone mass [1]: higher bone mass
inhibition of dissolution of hydroxyapatite (dissolved calcium) [2]: capable of inhibiting the dissolution of the salt
inhibition of dissolution of hydroxyapatite (dissolved calcium) [3]: capable of inhibiting the dissolution of the salt
